Test results: patent US20160158200A1, “Combinations of Hepatitis C Virus Inhibitors” (priority 2013, published 2016)

How the values were obtained:
[1] = tested on: HCV genotype 1a Y93H variant with tyrosine 93 changed to histidine in the NS5A protein; test: microbe, parasite or virus in culture; assay type: cell-based; settings: genotype 1a Y93H replicon; test compound titrated with compound N47 fixed at 200 nM versus singly
Method in brief: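 In an HCV genotype 1a replicon cell-based assay carrying the NS5A Y93H substitution, BMS-790052 was tested alone and in combination with a fixed amount of a second test compound. The combinations were examined for synergistic activity.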

[2] = tested on: HCV genotype 1a L31V variant with leucine 31 changed to valine in the NS5A protein; test: microbe, parasite or virus in culture; assay type: cell-based; settings: genotype 1a L31V replicon; test compound titrated with compound N47 fixed at 200 nM versus singly

| Compound | Fold-Synergistic G-1a (Y93H) [1] | Fold-Synergistic G-1a (L31V) [2] |
| --- | --- | --- |
| COC(=O)N[C@H](C(=O)N1[C@H](c2ncc(-c3ccc(-c4ccc(-c5cnc([C@@H]6CCN(C)N6C(=O)[C@@H](NC(=O)OC)C(C)C)[nH]5)cc4)cc3)[nH]2)CCN1C)C(C)C | >100 fold | >100 fold |
| CN(C)[C@@H](C(=O)N1CCC[C@H]1c1ncc(-c2ccc(-c3ccc(-c4ccc(-c5cnc([C@@H]6CCCN6C(=O)[C@@H](c6ccccc6)N(C)C)[nH]5)cc4)cc3)cc2)[nH]1)c1ccccc1 | <10 fold | <10 fold |
| COC(=O)N[C@H](C(=O)N1[C@H](c2nc(-c3ccc(-c4ccc(-c5c[nH]c([C@@H]6C[C@@H]7CCC[C@@H]7N6C(=O)[C@@H](NC(=O)OC)C(C)C)n5)cc4)cc3)c[nH]2)C[C@@H]2CCC[C@@H]21)C(C)C | >100 fold | >100 fold |
| COC(=O)NC(C(=O)N1[C@@H](C)CC[C@H]1c1ncc(-c2ccc(-c3cnc(-c4cnc([C@@H]5CC[C@H](C)N5C(=O)[C@@H](NC(=O)OC)[C@H]5C[C@@H](C)O[C@@H](C)C5)[nH]4)c4cccn34)cc2)[nH]1)[C@H]1C[C@@H](C)O[C@@H](C)C1 (some centres unmarked) | >100 fold | >10 fold |
| COC(=O)N[C@H]1CCC[C@H]2CC[C@@H](c3nc(-c4ccc(-c5ccc(-c6c[nH]c([C@@H]7CC[C@@H]8CCC[C@H](NC(=O)OC)C(=O)N87)n6)cc5)cc4)c[nH]3)N2C1=O | <10 fold | <10 fold |
| CN(C)[C@@H](C(=O)N1CCC[C@H]1c1ncc(-c2ccc(-c3ccc(-c4cnc([C@@H]5CCCN5C(=O)[C@@H](c5ccccc5)N(C)C)[nH]4)s3)s2)[nH]1)c1ccccc1 | <10 fold | <10 fold |
| COC(=O)N[C@H](C(=O)N1CCOC[C@H]1c1ncc(-c2ccc(-c3ccc(-c4cnc([C@@H]5COCCN5C(=O)[C@@H](NC(=O)OC)C(C)C)[nH]4)cc3)cc2)[nH]1)C(C)C | >100 fold | >100 fold |
| COC(=O)N[C@H](C(=O)N1C2CC2CC[C@H]1c1ncc(-c2ccc(-c3ccc(-c4cnc([C@@H]5CCC6CC6N5C(=O)[C@@H](NC(=O)OC)C(C)C)[nH]4)cc3)cc2)[nH]1)C(C)C (some centres unmarked) [drawing 2291] | >100 fold | >100 fold |
| O=C(Cc1ccccc1)N1CCC[C@H]1c1nc2cc(CCc3ccc4nc([C@@H]5CCCN5C(=O)Cc5ccccc5)[nH]c4c3)ccc2[nH]1 | <10 fold | <10 fold |
| COC(=O)N[C@H](C(=O)N1[C@@H]2C[C@@H]2C[C@H]1c1nc2cc(CCc3ccc4c(ccc5[nH]c([C@@H]6C[C@H]7C[C@H]7N6C(=O)[C@@H](NC(=O)OC)C6CCOCC6)nc54)c3)ccc2[nH]1)C(C)C | >100 fold | >10 fold |
| COC(=O)N[C@H](C(=O)N1CCC[C@H]1c1ncc(-c2ccc(-c3ccc4cc(-c5cnc([C@@H]6CCCN6C(=O)[C@@H](NC(=O)OC)C(C)C)[nH]5)ccc4c3)cc2)[nH]1)C(C)C | >10 fold | <10 fold |
| COC(=O)N[C@H](C(=O)N1[C@H](C)CC[C@H]1c1nc(-c2ccc(-c3ccc4cc(-c5c[nH]c([C@@H]6CC[C@@H](C)N6C(=O)[C@@H](NC(=O)OC)C(C)C)n5)ccc4c3)cc2)c[nH]1)C(C)C | <10 fold | >10 fold |
| COC(=O)N[C@H](C(=O)N1[C@@H](C)CC[C@H]1c1ncc(-c2ccc3c(c2)CCc2cc(-c4cnc([C@@H]5CC[C@H](C)N5C(=O)[C@@H](NC(=O)OC)C(C)C)[nH]4)ccc2-3)[nH]1)C(C)C | >100 fold | >100 fold |
| C[C@H](NC(=O)[C@@H](c1ccccc1)N(C)C)c1ncc(-c2ccc(-c3ccc(-c4cnc([C@@H]5CCCN5C(=O)[C@@H](c5ccccc5)N(C)C)[nH]4)cn3)cc2)[nH]1 | <10 fold | <10 fold |
| CN(C)[C@@H](C(=O)N1CCCC[C@H]1c1ncc(-c2ccc(-c3ccc(-c4cnc([C@@H]5CCCCN5C(=O)[C@@H](c5ccccc5)N(C)C)[nH]4)cc3)cc2)[nH]1)c1ccccc1 | >10 fold | <10 fold |
| COC(=O)N[C@H](C(=O)N1[C@@H]2C[C@@H]2C[C@H]1c1ncc(-c2ccc(-c3ccc4nc(-c5cnc([C@@H]6C[C@H]7C[C@H]7N6C(=O)[C@@H](NC(=O)OC)C(C)C)[nH]5)ccc4c3)cc2)[nH]1)C(C)C | >10 fold | <10 fold |
| CN(C)[C@@H](C(=O)N1CCC[C@H]1c1nc(-c2ccc(COCc3ccc(-c4c[nH]c([C@@H]5CCCN5C(=O)[C@@H](c5ccccc5)N(C)C)n4)cc3)cc2)c[nH]1)c1ccccc1 | <10 fold | <10 fold |

| Compound | Fold-Synergistic G-1a (Y93H) [1] | Fold-Synergistic G-1a (L31V) [2] |
| --- | --- | --- |
| COC(=O)N[C@H](C(=O)N1[C@@H]2C[C@@H]2C[C@H]1c1nc2ccc(-c3ccc(-c4ccc5nc([C@@H]6C[C@H]7C[C@H]7N6C(=O)[C@@H](NC(=O)OC)C(C)C)[nH]c5c4)cc3)cc2[nH]1)C(C)C | >100 fold | >10 fold |
| COC(=O)N[C@H](C(=O)N1[C@@H]2C[C@@H]2C[C@H]1c1nc(-c2ccn3nc(-c4ccc(-c5cnc([C@@H]6C[C@H]7C[C@H]7N6C(=O)[C@@H](NC(=O)OC)C(C)C)[nH]5)cc4)cc3c2)c[nH]1)C(C)C | >100 fold | >100 fold |
| COC(=O)N[C@H](C(=O)N1[C@@H]2C[C@@H]2C[C@H]1c1nc(-c2ccc3oc(-c4ccc(-c5cnc([C@@H]6C[C@H]7C[C@H]7N6C(=O)[C@@H](NC(=O)OC)C6CCOCC6)[nH]5)cc4)cc3c2)c[nH]1)C1CCOCC1 | <10 fold | <10 fold |
| COC(=O)N[C@H](C(=O)N1[C@@H](C)CC[C@H]1c1ncc(-c2ccc3c(c2)Cc2cc(-c4cnc([C@@H]5CC[C@H](C)N5C(=O)[C@@H](NC(=O)OC)C(C)C)[nH]4)ccc2-3)[nH]1)C(C)C | >100 fold | >100 fold |
| COC(=O)N[C@H](C(=O)N1C2CC2CC[C@H]1c1ncc(-c2ccc(-c3ccc(-c4cnc([C@@H]5CCC6CC6N5C(=O)[C@@H](NC(=O)OC)C(C)C)[nH]4)cc3)cc2)[nH]1)C(C)C (some centres unmarked) [drawing 2298] | >100 fold | >100 fold |
| COC(=O)N[C@H](C(=O)N1[C@@H](C)CC[C@H]1c1ncc(-c2ccc(-c3ccc(-c4cnc([C@@H]5CC[C@H](C)N5C(=O)[C@@H](NC(=O)OC)C(C)C)[nH]4)cc3)cc2)[nH]1)C(C)C | >100 fold | >100 fold |
| COC(=O)N[C@H](C(=O)N1CC[C@H](C)[C@H]1c1ncc(-c2ccc(-c3ccc(-c4cnc([C@@H]5[C@@H](C)CCN5C(=O)[C@@H](NC(=O)OC)C(C)C)[nH]4)cc3)cc2)[nH]1)C(C)C | >100 fold | >100 fold |
| CN1CCN(C(C(=O)N2CCC[C@H]2C(=O)Nc2ccc(-c3cnc(-c4ccc(NC(=O)[C@@H]5CCCN5C(=O)C(c5ccccc5)N5CCN(C)CC5)cc4)o3)cc2)c2ccccc2)CC1 (some centres unmarked) | <10 fold | <10 fold |
| Cc1nc2ccc(-c3cnc(-c4ccc5nc([C@@H]6CCCN6C(=O)[C@@H](c6ccccc6)N(C)C)[nH]c5c4)o3)cc2[nH]1 | <10 fold | <10 fold |
| CN(C)[C@@H](C(=O)N1CCC[C@H]1c1nc2ccc(-c3ncc([C@@H]4CCCN4C(=O)[C@@H](c4ccccc4)N(C)C)o3)cc2[nH]1)c1ccccc1 | <10 fold | <10 fold |
| COC(=O)N[C@H](C(=O)N1C[C@H](C)CC1c1nc(-c2ccc(-c3ccc(-c4cnc([C@@H]5C[C@@H](C)CN5C(=O)[C@@H](NC(=O)OC)C(C)C)[nH]4)cc3)cc2)c[nH]1)C(C)C (some centres unmarked) | >100 fold | >100 fold |
| COC(=O)N[C@H](C(=O)N1[C@@H]2C[C@@H]2C[C@H]1c1nc2ccc3cc(C#CC#Cc4ccc5c(ccc6nc([C@@H]7C[C@H]8C[C@H]8N7C(=O)[C@@H](NC(=O)OC)C(C)C)[nH]c65)c4)ccc3c2[nH]1)C(C)C | >10 fold | >10 fold |
| COC(=O)N[C@H](C(=O)N1CCC[C@H]1c1ncc(-c2ccc(-c3ccc4cc(-c5cnc([C@@H]6CCCN6C(=O)[C@@H](NC(=O)OC)C6CCOCC6)[nH]5)ccc4c3)cc2)[nH]1)C1CCOCC1 | >10 fold | <10 fold |
| COC(=O)N[C@H](C(=O)N1[C@@H]2C[C@@H]2C[C@H]1c1ncc(-c2ccc(-c3ccc(-c4cnc([C@@H]5C[C@H]6C[C@H]6N5C(=O)[C@@H](NC(=O)OC)C(C)C)[nH]4)cc3)cc2)[nH]1)C(C)C | >100 fold | >100 fold |
| COC(=O)N[C@H](C(=O)N1CCC[C@H]1c1nc2ccc(-c3ccc4nc(-c5ccc6nc([C@@H]7CCCN7C(=O)[C@@H](NC(=O)OC)C(C)C)[nH]c6c5)ccc4c3)cc2[nH]1)C(C)C | >10 fold | >10 fold |
| O=C(Nc1ccc(/C=C/c2ccc(NC(=O)[C@@H]3CCCCN3C(=O)OCc3ccccc3)cc2)cc1)[C@@H]1CCCCN1C(=O)OCc1ccccc1 | <10 fold | <10 fold |
| COC(=O)N[C@H](C(=O)N1CCC[C@H]1c1ncc(-c2cccc(C#Cc3cccc(-c4cnc([C@@H]5CCCN5C(=O)[C@@H](NC(=O)OC)C(C)C)[nH]4)c3)c2)[nH]1)C(C)C | >10 fold | >10 fold |
